The record followed here is the NIST ThermoML archive (doi:10.1021/je0497000).

For data set [1] the following is noted: Liquid; for mass density / speed of sound: 298.15 K, 101.3 kPa.
The nature of data set [2]: xn = mol fraction of the nth substance listed. Particulars: 298.15 K, 101.3 kPa, Liquid.

The structures appear in SMILES notation. ± gives the expanded uncertainty stated by the source.

On to `CC(C)=O` [acetone], for which, in data set [1], the mass density stood at 784.37 ± 0.31 kg/m3, the speed of sound is listed as 1162 ± 2 m/s and the Normal boiling temperature was 56.12 ± 0.13 °C.
In the case of `CC(C)=O` [acetone] + COC(=O)OC, in data set [2] (x1 = 1), the mass density is 784.37 ± 0.31 kg/m3 and the speed of sound was determined as 1162 ± 2 m/s.
For the compound `CCC(C)=O` [butanone], in data set [1], the mass density is given as 799.7 ± 0.35 kg/m3, the speed of sound is given as 1192 ± 2 m/s and the Normal boiling temperature was 79.63 ± 0.13 °C.
For `CCC(C)=O` [butanone] + COC(=O)OC, the mass density stood at 1049.31 ± 0.54 kg/m3 in data set [2] (x1 = 0.0499); 1035.29 ± 0.51 kg/m3 in data set [2] (x1 = 0.0999); 1007.79 ± 0.47 kg/m3 in data set [2] (x1 = 0.1994); 980.5 ± 0.44 kg/m3 in data set [2] (x1 = 0.2996); 953.88 ± 0.42 kg/m3 in data set [2] (x1 = 0.3986); 926.3 ± 0.41 kg/m3 in data set [2] (x1 = 0.5027). In addition, the mass density in data set [2] (x1 = 0.6014) is reported as 900.51 ± 0.38 kg/m3; in data set [2] (x1 = 0.7102) it was 872.49 ± 0.36 kg/m3; in data set [2] (x1 = 0.8038) it was 848.69 ± 0.35 kg/m3; in data set [2] (x1 = 0.9043), 823.48 ± 0.35 kg/m3; in data set [2] (x1 = 0.9514), 811.75 ± 0.35 kg/m3; in data set [2] (x1 = 1), 799.7 ± 0.35 kg/m3. Further, the speed of sound is given as 1199 ± 2 m/s in data set [2] (x1 = 0.0499); 1198 ± 2 m/s in data set [2] (x1 = 0.0999); 1196 ± 2 m/s in data set [2] (x1 = 0.1994); 1194 ± 2 m/s in data set [2] (x1 = 0.2996); 1192 ± 2 m/s in data set [2] (x1 = 0.3986); 1191 ± 2 m/s in data set [2] (x1 = 0.5027). For the same compound, the speed of sound in data set [2] (x1 = 0.6014) is recorded as 1190 ± 2 m/s; in data set [2] (x1 = 0.7102) it was 1190 ± 2 m/s; in data set [2] (x1 = 0.8038) it was 1191 ± 2 m/s; in data set [2] (x1 = 0.9043) it was 1191 ± 2 m/s; in data set [2] (x1 = 0.9514), 1191 ± 2 m/s; in data set [2] (x1 = 1), 1192 ± 2 m/s.
In the case of `COC(=O)OC` [dimethyl carbonate], in data set [1], the mass density was 1063.33 ± 0.56 kg/m3, the speed of sound is recorded as 1198 ± 2 m/s and the Normal boiling temperature was found to be 90.31 ± 0.13 °C.
For `COC(=O)OC` [dimethyl carbonate] + CC(C)=O, the mass density in data set [2] (x2 = 0) was 1063.33 ± 0.56 kg/m3; in data set [2] (x2 = 0.0447), 1052.64 ± 0.53 kg/m3; in data set [2] (x2 = 0.0906), 1041.54 ± 0.51 kg/m3; in data set [2] (x2 = 0.1886), 1017.22 ± 0.45 kg/m3; in data set [2] (x2 = 0.2886), 991.68 ± 0.4 kg/m3; in data set [2] (x2 = 0.3941), 963.86 ± 0.37 kg/m3. Besides, the mass density in data set [2] (x2 = 0.4933) stood at 936.83 ± 0.35 kg/m3; in data set [2] (x2 = 0.5988), 907.17 ± 0.32 kg/m3; in data set [2] (x2 = 0.7021), 877.06 ± 0.3 kg/m3; in data set [2] (x2 = 0.7974), 848.41 ± 0.29 kg/m3; in data set [2] (x2 = 0.9053), 814.88 ± 0.29 kg/m3; in data set [2] (x2 = 0.9534), 799.51 ± 0.3 kg/m3. Besides, the speed of sound in data set [2] (x2 = 0) was 1198 ± 2 m/s; in data set [2] (x2 = 0.0447), 1196 ± 2 m/s; in data set [2] (x2 = 0.0906), 1195 ± 2 m/s; in data set [2] (x2 = 0.1886), 1192 ± 2 m/s; in data set [2] (x2 = 0.2886), 1188 ± 2 m/s; in data set [2] (x2 = 0.3941), 1184 ± 2 m/s. Besides, the speed of sound is 1180 ± 2 m/s in data set [2] (x2 = 0.4933); 1176 ± 2 m/s in data set [2] (x2 = 0.5988); 1172 ± 2 m/s in data set [2] (x2 = 0.7021); 1168 ± 2 m/s in data set [2] (x2 = 0.7974); 1165 ± 2 m/s in data set [2] (x2 = 0.9053); 1163 ± 2 m/s in data set [2] (x2 = 0.9534).
In the case of `COC(=O)OC` [dimethyl carbonate] + CCC(C)=O, in data set [2] (x2 = 0), the mass density is reported as 1063.33 ± 0.56 kg/m3 and the speed of sound came to 1198 ± 2 m/s.
The like results for `COC(=O)OC` [dimethyl carbonate] + CCCC(C)=O were, in that order, 1063.33 ± 0.56 kg/m3 and 1198 ± 2 m/s.
For the compound `CCCC(C)=O` [pentan-2-one], in data set [1], the mass density is reported as 801.39 ± 0.35 kg/m3, the speed of sound is recorded as 1212 ± 2 m/s and the Normal boiling temperature worked out at 102.21 ± 0.13 °C.
Take `CCCC(C)=O` [pentan-2-one] + COC(=O)OC: the mass density is 1046.71 ± 0.53 kg/m3 in data set [2] (x1 = 0.0498); 1030.33 ± 0.51 kg/m3 in data set [2] (x1 = 0.1004); 999.49 ± 0.47 kg/m3 in data set [2] (x1 = 0.1996); 969.77 ± 0.44 kg/m3 in data set [2] (x1 = 0.3009); 942.67 ± 0.42 kg/m3 in data set [2] (x1 = 0.398); 914.75 ± 0.41 kg/m3 in data set [2] (x1 = 0.5036). The mass density in data set [2] (x1 = 0.6017) is 890.1 ± 0.38 kg/m3; in data set [2] (x1 = 0.7046), 865.52 ± 0.36 kg/m3; in data set [2] (x1 = 0.8012) it was 843.59 ± 0.35 kg/m3; in data set [2] (x1 = 0.901), 821.94 ± 0.35 kg/m3; in data set [2] (x1 = 0.9504) it was 811.55 ± 0.35 kg/m3; in data set [2] (x1 = 1) it was 801.39 ± 0.35 kg/m3. Also, the speed of sound in data set [2] (x1 = 0.0498) turned out to be 1199 ± 2 m/s; in data set [2] (x1 = 0.1004), 1198 ± 2 m/s; in data set [2] (x1 = 0.1996), 1197 ± 2 m/s; in data set [2] (x1 = 0.3009) it was 1198 ± 2 m/s; in data set [2] (x1 = 0.398) it was 1198 ± 2 m/s; in data set [2] (x1 = 0.5036), 1200 ± 2 m/s. Further, the speed of sound turned out to be 1201 ± 2 m/s in data set [2] (x1 = 0.6017); 1203 ± 2 m/s in data set [2] (x1 = 0.7046); 1206 ± 2 m/s in data set [2] (x1 = 0.8012); 1209 ± 2 m/s in data set [2] (x1 = 0.901); 1211 ± 2 m/s in data set [2] (x1 = 0.9504); 1212 ± 2 m/s in data set [2] (x1 = 1).
